{"source": "patent US20130296311A1", "about": "“INHIBITORS OF HCV NS5A” (PRESIDIO PHARMACEUTICALS, INC., priority 2010, published 2013)", "data": [{"tested_on": "HCV 1b_Huh-Luc/Neo-ET cell line persistently expressing a bicistronic genotype 1b replicon in Huh 7 cells", "assay": "HCV replicon assay (luciferase readout, 72 h)", "type": "cell-based, HCV genotype 1b", "details": "Hepatitis C virus, Huh-7, 72 h, read-out: Inhibition of HCV", "outline": "(§1)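 EC50 values come from a four-parameter fit of luciferase signal as % of untreated control, repeated across several determinations. The signal is from the HCV 1b_Huh-Luc/Neo-ET replicon line, dosed in triplicate one day post-plating and incubated 72 h before Bright-Glo readout.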", "units": {"EC50": "nM"}, "values": [{"compound": "COC(=O)N[C@@H](C(=O)N1CCC[C@H]1c1nc2ccc(C#Cc3ccc4nc([C@@H]5CCCN5C(=O)[C@H](NC(=O)OC)c5ccccc5)[nH]c4c3)cc2[nH]1)c1ccccc1", "note": "[Compound 851]", "EC50": "< 1"}]}, {"tested_on": "HCV 1b_Huh-Luc/Neo-ET cell line persistently expressing a bicistronic genotype 1b replicon in Huh 7 cells", "assay": "HCV replicon assay (luciferase readout, 72 h)", "type": "cell-based, HCV genotype 1b", "details": "Hepatitis C virus, Huh-7, 72 h, read-out: Inhibition of HCV genotype 1b", "outline": "as §1", "units": {"EC50": "nM"}, "values": [{"compound": "COC(=O)N[C@@H](C(=O)N1CCC[C@H]1c1ncc(-c2ccc(C#Cc3ccc(-c4cnc([C@@H]5CCCN5C(=O)[C@H](NC(=O)OC)c5ccccc5)[nH]4)cc3)cc2)[nH]1)c1ccccc1", "note": "[Compound 156]", "EC50": "< 1"}, {"compound": "CC(C)[C@@H](NC(=O)C1CC1)C(=O)N1CCC[C@H]1C(=O)Nc1ccc(C#Cc2cnc([C@@H]3CCCN3C(=O)[C@H](NC(=O)C3CC3)C(C)C)[nH]2)cc1", "note": "[Compound 116]", "EC50": "1 to 9.9"}, {"compound": "CC[C@H](NC(=O)OC)C(=O)N1CCC[C@H]1c1ncc(-c2ccc(C#Cc3ccc(-c4cnc([C@@H]5CCCN5C(=O)[C@H](CC)NC(=O)OC)[nH]4)cc3)cc2)[nH]1", "note": "[Compound 960]", "EC50": "< 1"}, {"compound": "CN1CCN(C(=O)N[C@@H](C(=O)N2CCC[C@H]2c2cc(-c3ccc(C#Cc4ccc(-c5cnc([C@@H]6CCCN6C(=O)[C@H](NC(=O)N6CCN(C)CC6)c6ccccc6)[nH]5)cc4)cc3)n[nH]2)c2ccccc2)CC1", "note": "[Compound 213]", "EC50": "< 1"}, {"compound": "COC(=O)N[C@@H](C(=O)N1CCC[C@H]1c1ncc(-c2ccc(C#Cc3ccc(-c4cnc([C@@H]5CCCN5C(=O)c5cccnc5)[nH]4)cc3)cc2)[nH]1)c1ccccc1", "note": "[Compound 183]", "EC50": "< 1"}, {"compound": "COC(=O)N[C@@H](C(=O)N1CCC[C@H]1c1ncc(-c2ccc(C#Cc3ccc(-c4cnc([C@@H]5CCCN5C(=O)[C@H](NC(=O)N5CCC[C@H]5C)c5ccccc5)[nH]4)cc3)cc2)[nH]1)c1ccccc1", "note": "[Compound 262]", "EC50": "< 1"}, {"compound": "COC(=O)N[C@@H](C(=O)N1CCC[C@H]1c1ncc(C#Cc2ccc3nc([C@@H]4CCCN4C(=O)[C@H](NC(=O)OC)c4ccccc4)[nH]c3c2)[nH]1)c1ccccc1", "note": "[Compound 700]", "EC50": "< 1"}, {"compound": "COC(=O)N[C@H](C(=O)N1CCC[C@H]1c1nc(-c2cnc3cc(C#Cc4ccc(-c5cnc([C@@H]6CCCN6C(=O)[C@@H](NC(=O)OC)C(C)C)[nH]5)cc4)ccc3c2)c[nH]1)C(C)C", "note": "[Compound 1088]", "EC50": "1 to 9.9"}, {"compound": "C[C@@H](NC(=O)[C@@H]1CCCN1C(=O)[C@H](NC(=O)OC(C)(C)C)c1ccccc1)c1ccc(C#Cc2cnc([C@@H]3CCCN3C(=O)[C@H](NC(=O)OC(C)(C)C)c3ccccc3)[nH]2)cc1", "note": "[Compound 129]", "EC50": "10 to 999"}, {"compound": "COC(=O)N[C@@H](C(=O)N1CCC[C@H]1c1ncc(C#Cc2ccc(-c3ccc(-c4cnc([C@@H]5CCCN5C(=O)[C@H](NC(=O)C5CC5)c5ccccc5)[nH]4)cc3)cc2)[nH]1)c1ccccc1", "note": "[Compound 754]", "EC50": "< 1"}, {"compound": "COC(=O)N[C@H](C(=O)N[C@@H](C)c1nc2ccc(C#Cc3ccc(-c4cnc([C@@H]5CCCN5C(=O)[C@@H](NC(=O)OC)C(C)C)[nH]4)cc3)cc2[nH]1)C(C)C", "note": "[Compound 867]", "EC50": "< 1"}, {"compound": "O=C(N[C@@H](C(=O)N1CCC[C@H]1c1ncc(C#Cc2ccc(-c3ccc(-c4cnc([C@@H]5CCCN5C(=O)[C@H](NC(=O)N5CCOCC5)c5ccccc5)[nH]4)cc3)cc2)[nH]1)c1ccccc1)N1CCOCC1", "note": "[Compound 761]", "EC50": "< 1"}, {"compound": "O=C(N[C@@H](C(=O)N1CCC[C@H]1c1ncc(C#Cc2ccc(C#Cc3cnc([C@@H]4CCCN4C(=O)[C@H](NC(=O)C4CC4)c4ccccc4)[nH]3)cc2)[nH]1)c1ccccc1)C1CC1", "note": "[Compound 303]", "EC50": "< 1"}, {"compound": "COC(=O)N[C@H](C(=O)N1CCC[C@H]1c1ncc(-c2ccc(C#Cc3ccc(-c4cnc([C@@H]5CCCN5C(=O)[C@@H](C(C)C)N(C)C)[nH]4)cc3)cc2)[nH]1)C(C)C", "note": "[Compound 954]", "EC50": "1 to 9.9"}, {"compound": "COC(=O)N[C@@H](C(=O)N1CCC[C@H]1c1ncc(-c2ccc(C#Cc3ccc(-c4cnc([C@@H]5CCCN5C(=O)[C@H](NC(=O)N5CCCCC5)c5ccccc5)[nH]4)cc3)cc2)[nH]1)c1ccccc1", "note": "[Compound 242]", "EC50": "< 1"}, {"compound": "COC(=O)N[C@H](C(=O)N1CCC[C@H]1c1ncc(-c2ccc(C#Cc3ccc(-c4cnc([C@@H]5CCCN5C(=O)[C@@H](c5ccccc5)N(C)C)[nH]4)cc3)cc2)[nH]1)C(C)C", "note": "[Compound 955]", "EC50": "< 1"}, {"compound": "COC(=O)N[C@H](Cc1ccccc1)C(=O)N1CCC[C@H]1c1ncc(-c2ccc(C#Cc3ccc(-c4cnc([C@@H]5CCCN5C(=O)[C@H](NC(=O)OC)c5ccccc5)[nH]4)cc3)cc2)[nH]1", "note": "[Compound 180]", "EC50": "< 1"}, {"compound": "COC(=O)N[C@@H](C(=O)N1CCC[C@H]1c1ncc(C#Cc2ccc(-c3ccc(-c4cnc([C@@H]5CCCN5C(=O)[C@@H](c5ccccc5)N(C)C)[nH]4)cc3)cc2)[nH]1)c1ccccc1", "note": "[Compound 755]", "EC50": "< 1"}, {"compound": "COC(=O)N[C@H](C(=O)N1CCC[C@H]1c1ncc(C#Cc2cccc3c(C#Cc4cnc([C@@H]5CCCN5C(=O)[C@@H](NC(=O)OC)C(C)C)[nH]4)cccc23)[nH]1)C(C)C", "note": "[Compound 1113]", "EC50": "< 1"}, {"compound": "CC(C)(NC(=O)C1CC1)C(=O)N1CCC[C@H]1c1ncc(C#Cc2ccc(-c3cnc([C@@H]4CCCN4C(=O)C(C)(C)NC(=O)C4CC4)[nH]3)cc2)[nH]1", "note": "[Compound 108]", "EC50": "> 1000"}, {"compound": "COC(=O)N[C@@H](C(=O)N1CCC[C@H]1c1ncc(-c2ccc(C#Cc3ccc(-c4cnc([C@@H]5CCCN5C(=O)Cc5cccnc5)[nH]4)cc3)cc2)[nH]1)c1ccccc1", "note": "[Compound 181]", "EC50": "< 1"}, {"compound": "COC(=O)N[C@H](C(=O)N1CCC[C@H]1c1nc2c([nH]1)-c1ccc(C#Cc3ccc4nc([C@@H]5CCCN5C(=O)[C@H](NC(=O)OC5CCOCC5)c5ccccc5)[nH]c4c3)cc1CC2)C(C)C", "note": "[Compound 1104]", "EC50": "< 1"}, {"compound": "COC(=O)N[C@@H](C(=O)N1CCC[C@H]1c1ncc(-c2ccc(C#Cc3ccc(-c4cnc([C@@H]5CCCN5C(=O)[C@H](NS(C)(=O)=O)c5ccccc5)[nH]4)cc3)cc2)[nH]1)c1ccccc1", "note": "[Compound 225]", "EC50": "< 1"}, {"compound": "COC(=O)N[C@H](C(=O)N1CCC[C@H]1c1ncc(-c2ccc(C#Cc3ccc4nc([C@@H]5CCCN5)[nH]c4c3)cc2)[nH]1)C(C)C", "note": "[Compound 1056]", "EC50": "10 to 999"}, {"compound": "CN1CCN(C(=O)N[C@@H](C(=O)N2CCC[C@H]2c2ncc(C#Cc3ccc(-c4cnc([C@@H]5CCCN5C(=O)[C@H](NC(=O)N5CCN(C)CC5)c5ccccc5)[nH]4)cc3)[nH]2)c2ccccc2)CC1", "note": "[Compound 118]", "EC50": "10 to 999"}, {"compound": "COC(=O)N[C@H](C(=O)N1CCC[C@H]1c1nc(-c2cnc3cc(C#Cc4cnc([C@@H]5CCCN5C(=O)[C@@H](NC(=O)OC)C(C)C)[nH]4)ccc3c2)c[nH]1)C(C)C", "note": "[Compound 1076]", "EC50": "< 1"}, {"compound": "CC(C)(C)OC(=O)N[C@@H](C(=O)N1CCC[C@H]1C(=O)Nc1ccc(C#Cc2cnc([C@@H]3CCCN3C(=O)[C@H](NC(=O)OC(C)(C)C)c3ccccc3)[nH]2)cc1)c1ccccc1", "note": "[Compound 115]", "EC50": "< 1"}, {"compound": "COC(=O)N[C@H](C(=O)N1CCC[C@H]1c1ncc(-c2ccc(C#Cc3ccc(-c4cnc([C@@H]5CCCN5C(=O)[C@@H](NC(=O)OC)C(C)(C)O)[nH]4)cc3)cc2)[nH]1)C(C)(C)O", "note": "[Compound 993]", "EC50": "< 1"}, {"compound": "COC(=O)N[C@@H](C(=O)N[C@H](c1ncc(-c2ccc(C#Cc3ccc(-c4cnc([C@@H]5CCCN5C(=O)[C@H](NC(=O)OC)c5ccccc5)[nH]4)cc3)cc2)[nH]1)C(C)C)c1ccccc1", "note": "[Compound 282]", "EC50": "< 1"}, {"compound": "COC(=O)N[C@H](C(=O)N1CCC[C@H]1c1nc2ccc3cc(C#Cc4ccc(-c5cnc([C@@H]6CCCN6C(=O)[C@H](NC(=O)OC)c6ccccc6)[nH]5)cc4F)ccc3c2[nH]1)C(C)C", "note": "[Compound 1100]", "EC50": "< 1"}, {"compound": "O=C(N[C@@H](C(=O)N1CCC[C@H]1C(=O)Nc1ccc(C#Cc2cnc([C@@H]3CCCN3C(=O)[C@H](NC(=O)C3CC3)c3ccccc3)[nH]2)cc1)c1ccccc1)C1CC1", "note": "[Compound 117]", "EC50": "< 1"}, {"compound": "CC1(O)CCN(C(=O)N[C@@H](C(=O)N2CCC[C@H]2c2ncc(C#Cc3ccc(-c4ccc(-c5cnc([C@@H]6CCCN6C(=O)[C@H](NC(=O)N6CCC(C)(O)CC6)c6ccccc6)[nH]5)cc4)cc3)[nH]2)c2ccccc2)CC1", "note": "[Compound 870]", "EC50": "< 1"}]}, {"tested_on": "HCV 1b_Huh-Luc/Neo-ET cell line persistently expressing a bicistronic genotype 1b replicon in Huh 7 cells", "assay": "HCV replicon assay (luciferase readout, 72 h)", "type": "cell-based, HCV genotype 1b", "details": "Hepatitis C virus, Huh-7, read-out: Inhibition of HCV genotype 1b", "outline": "as §1", "units": {"EC50": "nM"}, "values": [{"compound": "COC(=O)N[C@H](C(=O)N1CCC[C@H]1c1nc(C)c(C#Cc2ccc3cc(-c4cnc([C@@H]5CCCN5C(=O)[C@@H](NC(=O)OC)[C@@H](C)OC)[nH]4)ccc3c2)[nH]1)C1CCCC1", "note": "[Compound 1266]", "EC50": "< 1"}, {"compound": "COC(=O)N[C@@H](C(=O)N1CCN(C(C)=O)C[C@H]1c1ncc(-c2ccc(C#Cc3ccc4nc([C@@H]5CCCN5C(=O)[C@H](NC(=O)OC)c5ccccc5)[nH]c4c3)cc2)[nH]1)c1ccccc1", "note": "[Compound 1233]", "EC50": "< 1"}, {"compound": "COC(=O)N[C@H](C(=O)N1CCC[C@H]1c1nc2ccc(C#Cc3ccc4c(ccc5nc([C@@H]6CCCN6C(=O)[C@@H](NC(=O)OC)C(C)C)[nH]c54)c3)cc2[nH]1)C(C)C", "note": "[Compound 1273]", "EC50": "< 1"}, {"compound": "COC(=O)N[C@H](C(=O)N1CCC[C@H]1c1ncc(-c2ccc(C#Cc3ccc(-c4cnc([C@@H]5CCCN5C(=O)[C@H](NC(=O)OC)c5ccccc5)[nH]4)cc3)cc2)[nH]1)[C@@H](C)OC", "note": "[Compound 1210]", "EC50": "< 1"}, {"compound": "COC(=O)N[C@H](C(=O)N1CCC[C@H]1c1ncc(-c2ccc(C#Cc3ccc(-c4cnc([C@@H]5CCCN5C(=O)[C@@H](NC(=O)OC)C(C)C)[nH]4)cc3C(=O)N3CCCC3)cc2)[nH]1)C(C)C", "note": "[Compound 1208]", "EC50": "< 1"}, {"compound": "COC(=O)N[C@H](C(=O)N1CCC[C@H]1c1ncc(-c2ccc(C#Cc3ccc(-c4cnc([C@@H]5CCCN5C(=O)[C@@H](NC(=O)OC)C5CCOCC5)[nH]4)cc3)cc2)[nH]1)C(C)C", "note": "[Compound 1219]", "EC50": "< 1"}, {"compound": "COC(=O)N[C@H](C(=O)N1CCC[C@H]1c1nc(C#N)c(C#Cc2ccc3cc(-c4cnc([C@@H]5CCCN5C(=O)[C@@H](NC(=O)OC)[C@@H](C)OC)[nH]4)ccc3c2)[nH]1)C1CCCC1", "note": "[Compound 1270]", "EC50": "< 1"}, {"compound": "COC(=O)N[C@H](C(=O)N1CCC[C@H]1c1ncc(-c2ccc3cc(C#Cc4[nH]c([C@@H]5CCCN5C(=O)[C@@H](NC(=O)OC)[C@@H](C)OC)nc4C(F)(F)F)ccc3c2)[nH]1)C1CCCC1", "note": "[Compound 1260]", "EC50": "< 1"}]}]}
